In patent US8236279B2, “Bisaminoethanethiol-targeting ligand conjugates and compositions” (priority 1999, dated 2012):
“Also recorded” adds a separate entry of the source.

Legend:
[1] = list continues over wrapped lines of the table; cited from earlier work
[2] = Effect of loading on blood glucose level in normal rats; assay type: in vivo, Fischer 344 rats; details: insulin (5 units) after 30 minutes
Description: The blood glucose level (mg/dl) was determined by a glucose meter (Glucometer DEX, Bayer Corporation, Elkhart, Ind.). Prior to the study, the baseline of blood glucose level was obtained. […] In a separate experiment, a group of rats was administered EC-deoxyglucose and FDG. Insulin (5 units) was administered after 30 minutes.

[3] = test system: hexokinase; experiment: Hexokinase assay (glucose phosphorylation); assay type: biochemical; details: UV wavelength 340 nm
Description: To determine if EC-DG mimics glucose phosphorylation, a hexokinase assay was conducted. Using a ready made kit (Sigma Chemical Company), EC-DG, glucosamine and glucose (standard) were assayed at UV wavelength 340 nm.

[4] = test system: Breast Tumor-Bearing Rats (13762 tumor cell line); experiment: Tissue distribution (biodistribution) studies in breast tumor-bearing rats; details: for tumor/blood and tumor/muscle count density ratios, course over time: […] (so in the source); for Biodistribution: Brain / Biodistribution: Heart / Biodistribution: Spleen / Tumor/Blood ratio / Tumor/Liver ratio / Tumor/Muscle ratio: Table 9
Description: Studies performed 14 to 17 days after implantation when tumors reached approximately 1 cm diameter. Animals were anesthetized with ketamine (10-15 mg/rat, intraperitoneally) before each procedure.
The injected mass of each ligand was 10 μg per rat. At 20 min, 1, 2 and 4 h following administration of the radiopharmaceuticals, the anesthetized animals were sacrificed and the tumor and selected tissues were excised, weighed and counted for radioactivity by a gamma counter (Packard Instruments, Downers Grove, Ill.). The biodistribution of tracer in each sample was calculated as percentage of the injected dose per gram of tissue wet weight (% ID/g). Counts from a diluted sample of the original injectate were used for reference. Tumor/nontarget tissue count density ratios were calculated from the corresponding % ID/g values. Student-t test was used to assess the significance of differences between two groups.
Studies performed 14 to 17 days after implantation when tumors reached approximately 1 cm diameter. Rats were anesthetized with ketamine (10-15 mg/rat, intraperitoneally) before each procedure.
In tissue distribution studies, each animal was injected intravenously with 370-550 KBq of ^99mTc-EC-MN or ^99mTc-EC (n=3/time point). The injected mass of ^99mTc-EC-MN was 10 μg per rat. At 0.5, 2 and 4 hrs following administration of the radiotracers, the rats were sacrificed and the selected tissues were excised, weighed and counted for radioactivity. The biodistribution of tracer in each sample was calculated as percentage of the injected dose per gram of tissue wet weight (% ID/g). Tumor/nontarget tissue count density radios were calculated from the corresponding % ID/g values. […] Student t-test was used to assess the significance of differences between groups.
(§1) At 0.5, 2 and 4 hrs following administration of the radiotracers, the rats were sacrificed and the selected tissues were excised, weighed and counted for radioactivity. The biodistribution of tracer in each sample was calculated as percentage of the injected dose per gram of tissue wet weight (% ID/g). Tumor/nontarget tissue count density ratios were calculated from the corresponding % ID/g values. Student t-test was used to assess the significance of differences between groups.
as §1, with “hours” for “hrs”, “values.” for “values. Student t-test was used to assess the significance of differences between groups.”
Studies were performed 14 to 17 days after implantation when tumors reached approximately 1 cm diameter. Rats were anesthetized with ketamine (10-15 mg/rat, intraperitoneally) before each procedure.
In tissue distribution studies, each animal was injected intravenously with 10-20 μCi (per rat) or 1-2 μCi (per mouse) of ^99mTc-EC or ^99mTc-EC-DG (n=3/time point). The injected mass of ^99mTc-EC-DG was 1 mg per rat. At 0.5, 2 and 4 hours following administration of the radiotracers, the rodents were sacrificed and the selected tissues were excised, weighed and counted for radioactivity. The biodistribution of tracer in each sample was calculated as percentage of the injected dose per gram of tissue wet weight (% ID/g). Tumor/nontarget tissue count density ratios were calculated from the corresponding % ID/g values.

[5] = test system: breast (13762) and lung (A549) cancer cells; experiment: Effect of d- and l-glucose on cellular uptake; assay type: cell-based; details: 1-2.0 mg/well, 2 hours incubation
Description: To evaluate if the uptake of ^99mTc-EC-deoxyglucose is mediated via d-glucose mechanism, d- and l-glucose (1 mg and 2.0 mg) were added to, each well containing either breast or lung cancer cells (50,000/0.5 ml/well), along with 2 μCi of ^99mTc-EC-deoxyglucose and ^18F-FDG. After 2 hours incubation, the cells were washed with phosphate buffered saline 3 times and followed by trypsin to lose the cells. The cells were counted by a gamma counter.

[6] = test system: breast tumor-bearing rats; experiment: Scintigraphic (gamma camera) imaging studies in tumor-bearing rats; assay type: in vivo; details: different time points (0.5-4 hrs) after i.v. injection
[7] = test system: two lung cancer cell lines and one breast cell line (A549, H1299, 13762); experiment: Effect of glucose on cellular uptake; assay type: cell-based
Description: Neomycin is known to influence glucose absorption (Rogers et al., 1968; Fanciulli et al., 1994). […] After incubation, the cells were washed with phosphate buffered saline 3 times and followed by trypsin to lose the cells. The cells were then counted by a gamma counter.

[8] = test system: A549 lung cancer cell line; experiment: In vitro cellular uptake assay; assay type: cell-based, human; details: 2 μCi per well, 80,000 cells, incubation 0.5-4 hours
Description: After incubation at 0.5-4 hours, the cells were washed with phosphate buffered saline 3 times and followed by trypsin to lose the cells.
In vitro cellular uptake assay was conducted by using a human lung cancer cell line (A549). Two μCi of ^99mTc-EC-DG and ^18F-FDG were added to wells containing 80,000 cells each. After incubation at 0.5-4 hours, the cells were washed with phosphate buffered saline 3 times and followed by trypsin to lose the cells. The cells were then counted by a gamma counter.

[9] = test system: patients (3 brain tumors and 2 lung diseases); experiment: Preliminary clinical imaging studies in patients (brain tumors, lung diseases); assay type: in vivo, human; details: images 1-2 hours post-administration
Description: Scintigraphic images, using a gamma camera equipped with low-energy, parallel-hole collimator, were obtained 0.5, 2 and 4 hours after i.v. injection of 100 μCi of the radiotracer. The animal model used was breast tumor-bearing rats. […] Preliminary clinical studies were conducted in 5 patients (3 brain tumors and 2 lung diseases).

[10] = Water solubility; assay type: physicochemical

CCC1(c2ccc(N)cc2)CCC(=O)NC1=O (centres unmarked) [Aminogiutethimide]
Acute Toxicity [1]: Drowsiness; nausea; dizziness; rash
Delayed toxicity [1]: Hypothryroidism (rare); bone

COc1cc(NS(C)(=O)=O)ccc1Nc1c2ccccc2nc2ccccc12 [Amsacrine]
Delayed toxicity [1]: Bone marrow depression;

OC[C@H]1OC(O)[C@H](F)[C@@H](O)[C@@H]1O (some centres unmarked) [FDG]
increased blood glucose level on co-administration with insulin [2]: suppressed

OC[C@H]1OC(O)[C@H](O)[C@@H](O)[C@@H]1O (some centres unmarked) [Glucose]
hexokinase assay [3]: positive

O=[N+]([O-])c1nccn1CC(O)C[18F] (centres unmarked) [[^18F]FMISO]
tumor-to-blood uptake ratio, comparison among [18F]FMISO, [131I]IMISO and 99mTc-EC-MN ([4]; 30 min, 2 and 4 hrs post-injection): highest
tumor/blood and tumor/muscle count density ratios, course over time [4]: gradually increased

O=[N+]([O-])c1nccn1CC(O)C[131I] (centres unmarked) [[^131I]IMISO]
Tumor/blood and tumor/muscle ratios, 99mTc-EC-MN versus [131I]IMISO ([4]; 2 and 4 hrs postinjection, (p<0.05) as printed): not significantly different
tumor/blood and tumor/muscle count density ratios, course over time [4]: gradually increased

OC[C@H]1OC(O)[C@H]([18F])[C@@H](O)[C@@H]1O (some centres unmarked) [^18F-FDG]
effect of d-glucose on cellular uptake [5]: decreased uptake
effect of l-glucose on cellular uptake [5]: no influence

[O]=[99Tc](=[O])(=[O])[O-] [^99mTc Pertechnetate]
Biodistribution: Brain ([4]; 2 Hour): 0.022 ± 0.002 % ID/g
Biodistribution: Heart ([4]; 2 Hour): 0.145 ± 0.015 % ID/g
Biodistribution: Spleen ([4]; 2 Hour): 0.187 ± 0.014 % ID/g
Tumor/Blood ratio ([4]; 2 Hour): 0.497 ± 0.073
Tumor/Liver ratio ([4]; 2 Hour): 1.084 ± 0.115
Tumor/Muscle ratio ([4]; 2 Hour): 4.302 ± 0.093
Biodistribution: Brain ([4]; 4 Hour): 0.031 ± 0.009 % ID/g
Biodistribution: Heart ([4]; 4 Hour): 0.166 ± 0.012 % ID/g
Biodistribution: Spleen ([4]; 4 Hour): 0.225 ± 0.017 % ID/g
Tumor/Blood ratio ([4]; 4 Hour): 0.597 ± 0.144
Tumor/Liver ratio ([4]; 4 Hour): 0.865 ± 0.270
Tumor/Muscle ratio ([4]; 4 Hour): 6.689 ± 1.458
Biodistribution: Brain ([4]; 30 Min.): 0.038 ± 0.014 % ID/g
Biodistribution: Heart ([4]; 30 Min.): 0.275 ± 0.089 % ID/g
Biodistribution: Spleen ([4]; 30 Min.): 0.331 ± 0.108 % ID/g
Tumor/Blood ratio ([4]; 30 Min.): 0.472 ± 0.093
Tumor/Liver ratio ([4]; 30 Min.): 1.084 ± 0.023
Tumor/Muscle ratio ([4]; 30 Min.): 4.788 ± 0.833

O=C(O)[C@@H]1C[S][99Tc]23(=[O])[S]C[C@@H](C(=O)O)[N]2CC[N]13 [^99mTc-EC, ^99mTc-L,L-ethylenedicysteine]
Scintigraphic images: visualization of tumor / tumor uptake [6]: no apparent tumor uptake; also recorded: less tumor uptake
tumor/blood count density ratios, course over time ([4]; 20 min-4 h): decreased
tumor/blood and tumor/muscle count density ratios, course over time [4]: did not alter
tumor-to-blood and tumor-to-muscle values, course over time ([4]; same time period (0.5-4 hours)): time-dependent decrease
cellular uptake of control [7]: no uptake

O=C(N[C@H]1C(O)O[C@H](CO)[C@@H](O)[C@@H]1O)[C@@H]1C[S][Tc]23(=[O])[S]C[C@@H](C(=O)N[C@H]4C(O)O[C@H](CO)[C@@H](O)[C@@H]4O)[N]2CC[N]13 (some centres unmarked) [^99mTc-EC-DG]
cellular uptake [8]: comparable to FDG
Scintigraphic images: visualization of tumor / tumor uptake [6]: visualized well
Scintigraphic images: visualization of tumor / tumor uptake ([6]; listed as 99mTc-EC-deoxyglucose): well visualized
effect of d-glucose on cellular uptake [5]: decreased uptake
effect of l-glucose on cellular uptake [5]: no influence
tumor-to tissue ratios, course over time, compared to 99mTc-EC and free technetium ([4]; 0.5-4 hours): increased as a function of time
differentiation of benign versus malignant tumors [9]: able to differentiate benign versus malignant tumors
uptake in benign meningioma [9]: no focal intensed uptake; also recorded: poor uptake
uptake in lung tumor [9]: focal intensed uptake; also recorded: high uptake
uptake in malignant astrocytoma [9]: high uptake
uptake in patient with TB [9]: no focal intensed uptake; also recorded: Poor uptake

N[C@H]1C(O)O[C@H](CO)[C@@H](O)[C@@H]1O (some centres unmarked) [glucosamine]
hexokinase assay [3]: positive

Aldesleukin
Acute Toxicity [1]: Fever; fluid retention; hypertension;
Delayed toxicity [1]: Neuropsychiatric disorders;

L,L-ethylenedicysteine [EC]
water solubility [10]: water soluble

B1: Asparaginase: anticancer drug listed in Table 2 (protein, UniProt P00805 23-348, looked up)
L-asparaginase 2: LPNITILATGGTIAGGGDSATKSNYTVGKVGVENLVNAVPQLKDIANVKGEQVVNIGSQDMNDNVWLTLAKKINTDCDKTDGFVITHGTDTMEETAYFLDLTVKCDKPVVMVGAMRPSTSMSADGPFNLYNAVVTAADKASANRGVLVVMNDTVLDGRDVTKTNTTDVATFKSVNYGPLGYIHNGKIDYQRTPARKHTSDTPFDVSKLNELPKVGIVYNYANASDLPAKALVDAGYDGIVSAGVGNGNLYKSVFDTLATAAKTGTAVVRSSRVPTGATTQDAEVDDAKYGFVASGTLNPQKARVLLQLALTQTKDPQQIQQIFNQY
Acute Toxicity [1]: Nausea and vomiting; fever; chills;
